Experimental data: US8445492B2, “Method for inhibiting growth of cancer cells and cell telomere and diseases of cell proliferation by using heteroannelated anthraquinone derivative compounds” (National Defense Medical Center, priority 2008, dated 2013)
Where two headings read alike, the source gives them in different places.

What was measured:
786-0 = assay: NCI DTP in-vitro dose response, Renal Cancer; type: cell-based
A498 = assay: NCI DTP in-vitro dose response, Renal Cancer; type: cell-based
ACHN = assay: NCI DTP in-vitro dose response, Renal Cancer; type: cell-based
CAKI-1 = assay: NCI DTP in-vitro dose response, Renal Cancer; type: cell-based
SN12C = assay: NCI DTP in-vitro dose response, Renal Cancer; type: cell-based
TK-10 = assay: NCI DTP in-vitro dose response, Renal Cancer; type: cell-based
UO-31 = assay: NCI DTP in-vitro dose response, Renal Cancer; type: cell-based

## O=C1c2ccccc2C(=O)c2c1ccc1nccnc21 [TABLE 5-8]
PC-3; PC-3
  TGI: >1.00E−4
PC-3; PC-3, Log10 Concentration −4.0
  Percent Growth: 50%
PC-3; PC-3, Log10 Concentration −5.0
  Percent Growth: 50%
PC-3; PC-3, Log10 Concentration −6.0
  Percent Growth: 69%
PC-3; PC-3, Log10 Concentration −7.0
  Percent Growth: 92%
PC-3; PC-3, Log10 Concentration −8.0
  Percent Growth: 101%
PC-3; read-out: LC50, PC-3
  CC50: > 100 µM
DU-145; DU-145
  GI50: 11.4 µM
  TGI: 3.43E−5
DU-145; DU-145, Log10 Concentration −4.0
  Percent Growth: −49%
DU-145; DU-145, Log10 Concentration −5.0
  Percent Growth: 56%
DU-145; DU-145, Log10 Concentration −6.0
  Percent Growth: 96%
DU-145; DU-145, Log10 Concentration −7.0
  Percent Growth: 95%
DU-145; DU-145, Log10 Concentration −8.0
  Percent Growth: 102%
DU-145; read-out: LC50, DU-145
  CC50: > 100 µM

## CCc1nc2ccc3c(c2[nH]1)C(=O)c1ccccc1C3=O [TABLE 4-7]
786-0
  CC50: > 100 µM
  TGI: >1.00E−4
786-0; Log10 Concentration −4.0
  Percent Growth: 38%
786-0; Log10 Concentration −5.0
  Percent Growth: 68%
786-0; Log10 Concentration −6.0
  Percent Growth: 95%
786-0; Log10 Concentration −7.0
  Percent Growth: 102%
786-0; Log10 Concentration −8.0
  Percent Growth: 104%
786-0; read-out: GI50
  GI50: 40.2 µM
A498
  CC50: > 100 µM
  TGI: 4.27E−5
A498; Log10 Concentration −4.0
  Percent Growth: −20%
A498; Log10 Concentration −5.0
  Percent Growth: 34%
A498; Log10 Concentration −6.0
  Percent Growth: 74%
A498; Log10 Concentration −7.0
  Percent Growth: 97%
A498; Log10 Concentration −8.0
  Percent Growth: 94%
A498; read-out: GI50
  GI50: 3.89 µM
ACHN
  CC50: > 100 µM
  TGI: 5.46E−5
ACHN; Log10 Concentration −4.0
  Percent Growth: −5%
ACHN; Log10 Concentration −5.0
  Percent Growth: 14%
ACHN; Log10 Concentration −6.0
  Percent Growth: 62%
ACHN; Log10 Concentration −7.0
  Percent Growth: 85%
ACHN; Log10 Concentration −8.0
  Percent Growth: 94%
ACHN; read-out: GI50
  GI50: 1770 nM
CAKI-1
  CC50: > 100 µM
  TGI: >1.00E−4
CAKI-1; Log10 Concentration −4.0
  Percent Growth: 9%
CAKI-1; Log10 Concentration −5.0
  Percent Growth: 20%
CAKI-1; Log10 Concentration −6.0
  Percent Growth: 76%
CAKI-1; Log10 Concentration −7.0
  Percent Growth: 91%
CAKI-1; Log10 Concentration −8.0
  Percent Growth: 97%
CAKI-1; read-out: GI50
  GI50: 2900 nM
SN12C
  CC50: > 100 µM
  TGI: >1.00E−4
SN12C; Log10 Concentration −4.0
  Percent Growth: 18%
SN12C; Log10 Concentration −5.0
  Percent Growth: 46%
SN12C; Log10 Concentration −6.0
  Percent Growth: 74%
SN12C; Log10 Concentration −7.0
  Percent Growth: 80%
SN12C; Log10 Concentration −8.0
  Percent Growth: 74%
SN12C; read-out: GI50
  GI50: 7.05 µM
TK-10
  CC50: > 100 µM
  TGI: >1.00E−4
TK-10; Log10 Concentration −4.0
  Percent Growth: 3%
TK-10; Log10 Concentration −5.0
  Percent Growth: 39%
TK-10; Log10 Concentration −6.0
  Percent Growth: 75%
TK-10; Log10 Concentration −7.0
  Percent Growth: 113%
TK-10; Log10 Concentration −8.0
  Percent Growth: 95%
TK-10; read-out: GI50
  GI50: 4.88 µM
UO-31
  CC50: > 100 µM
  TGI: >1.00E−4
UO-31; Log10 Concentration −5.0
  Percent Growth: 15%
UO-31; Log10 Concentration −6.0
  Percent Growth: 67%
UO-31; Log10 Concentration −7.0
  Percent Growth: 83%
UO-31; Log10 Concentration −8.0
  Percent Growth: 88%
UO-31; read-out: GI50
  GI50: 2120 nM
